Measurements as given in ChEMBL document CHEMBL3045465, “Development of Selective Ligands for Benzodiazepine Receptor Subtypes by Manipulating the Substituents at Positions 3- and 7- of Optically Active BzR Ligands” (Med Chem Res, 2004).
pKi: −log10 of the molar value.

Key:
[1] = biological target: T1, GABA-A receptor; alpha-5/beta-3/gamma-2 (Homo sapiens, UniProt P18507+P28472+P31644); assay: Displacement of [3H]-Ro 15-1788 from Homo sapiens (human) recombinant GABAA alpha5beta3gamma2 receptor expressed in Ltk- cells after 1 hr by liquid scintillation counting; format: cell-based
T1 sequence (P18507 whole entry): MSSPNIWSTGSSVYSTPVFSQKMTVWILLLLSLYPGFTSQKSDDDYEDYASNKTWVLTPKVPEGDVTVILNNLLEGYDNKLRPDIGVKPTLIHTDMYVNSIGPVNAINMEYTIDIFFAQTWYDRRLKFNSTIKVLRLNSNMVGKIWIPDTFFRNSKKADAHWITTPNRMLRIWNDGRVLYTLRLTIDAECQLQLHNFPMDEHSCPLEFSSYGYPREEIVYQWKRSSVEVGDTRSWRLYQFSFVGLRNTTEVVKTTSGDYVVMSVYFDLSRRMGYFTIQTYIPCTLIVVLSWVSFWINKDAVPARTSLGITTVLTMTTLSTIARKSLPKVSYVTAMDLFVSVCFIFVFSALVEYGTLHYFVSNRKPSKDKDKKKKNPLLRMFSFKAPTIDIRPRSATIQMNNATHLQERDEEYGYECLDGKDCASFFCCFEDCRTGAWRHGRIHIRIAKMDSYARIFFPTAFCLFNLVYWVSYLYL
T1 sequence (P28472 whole entry): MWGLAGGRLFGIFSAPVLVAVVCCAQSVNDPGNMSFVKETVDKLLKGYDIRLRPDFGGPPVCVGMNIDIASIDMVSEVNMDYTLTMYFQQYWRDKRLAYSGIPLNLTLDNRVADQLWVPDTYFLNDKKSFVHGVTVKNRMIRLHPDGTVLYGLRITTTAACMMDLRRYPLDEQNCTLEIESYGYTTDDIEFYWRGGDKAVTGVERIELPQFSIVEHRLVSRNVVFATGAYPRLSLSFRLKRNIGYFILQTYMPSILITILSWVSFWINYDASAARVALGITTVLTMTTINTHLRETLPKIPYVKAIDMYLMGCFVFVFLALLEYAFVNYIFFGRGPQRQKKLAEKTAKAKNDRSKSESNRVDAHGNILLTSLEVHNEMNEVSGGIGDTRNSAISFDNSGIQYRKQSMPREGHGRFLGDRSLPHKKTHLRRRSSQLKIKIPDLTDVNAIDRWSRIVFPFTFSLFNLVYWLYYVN
T1 sequence (P31644 whole entry): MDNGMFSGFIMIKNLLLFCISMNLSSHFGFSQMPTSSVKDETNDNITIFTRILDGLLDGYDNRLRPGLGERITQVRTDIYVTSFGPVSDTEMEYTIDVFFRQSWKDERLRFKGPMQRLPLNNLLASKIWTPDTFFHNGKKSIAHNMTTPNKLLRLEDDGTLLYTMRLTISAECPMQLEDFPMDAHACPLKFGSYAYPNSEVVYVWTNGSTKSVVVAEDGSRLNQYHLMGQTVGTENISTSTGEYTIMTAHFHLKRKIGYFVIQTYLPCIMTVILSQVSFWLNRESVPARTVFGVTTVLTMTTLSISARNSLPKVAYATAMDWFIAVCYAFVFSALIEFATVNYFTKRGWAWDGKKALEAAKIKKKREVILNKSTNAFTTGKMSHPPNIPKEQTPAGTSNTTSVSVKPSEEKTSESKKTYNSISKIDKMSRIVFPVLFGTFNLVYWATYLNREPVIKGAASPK

[2] = biological target: T2, GABA-A receptor; alpha-2/beta-3/gamma-2 (Homo sapiens, UniProt P18507+P28472+P47869); assay: Displacement of [3H]-Ro 15-1788 from Homo sapiens (human) recombinant GABAA alpha2beta3gamma2 receptor expressed in Ltk- cells after 1 hr by liquid scintillation counting; format: cell-based
T2 sequence (P18507 whole entry): T1 sequence (P18507 whole entry)
T2 sequence (P28472 whole entry): T1 sequence (P28472 whole entry)
T2 sequence (P47869 whole entry): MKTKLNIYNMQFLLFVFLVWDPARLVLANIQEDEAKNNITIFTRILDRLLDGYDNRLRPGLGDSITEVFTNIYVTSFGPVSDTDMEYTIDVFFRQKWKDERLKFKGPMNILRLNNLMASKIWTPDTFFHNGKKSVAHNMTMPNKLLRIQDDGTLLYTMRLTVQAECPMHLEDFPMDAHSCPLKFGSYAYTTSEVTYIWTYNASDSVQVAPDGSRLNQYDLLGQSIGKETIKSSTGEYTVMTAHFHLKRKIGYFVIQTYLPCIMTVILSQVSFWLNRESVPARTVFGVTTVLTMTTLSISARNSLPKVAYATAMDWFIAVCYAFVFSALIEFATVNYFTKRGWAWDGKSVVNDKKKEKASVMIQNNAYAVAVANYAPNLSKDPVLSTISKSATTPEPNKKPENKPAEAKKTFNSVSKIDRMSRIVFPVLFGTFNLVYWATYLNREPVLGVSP

[3] = biological target: GABA A receptor alpha-4/beta-3/gamma-2 (Homo sapiens, UniProt P18507+P28472+P48169); assay: Displacement of [3H]-Ro 15-4513 from Homo sapiens (human) recombinant GABAA alpha4beta3gamma2 receptor expressed in Ltk- cells after 1 hr by liquid scintillation counting; format: cell-based
[4] = biological target: T3, GABA-A receptor; alpha-1/beta-3/gamma-2 (Homo sapiens, UniProt P14867+P18507+P28472); assay: Displacement of [3H]-Ro 15-1788 from Homo sapiens (human) recombinant GABAA alpha1beta3gamma2 receptor expressed in Ltk- cells after 1 hr by liquid scintillation counting; format: cell-based
T3 sequence (P14867 whole entry): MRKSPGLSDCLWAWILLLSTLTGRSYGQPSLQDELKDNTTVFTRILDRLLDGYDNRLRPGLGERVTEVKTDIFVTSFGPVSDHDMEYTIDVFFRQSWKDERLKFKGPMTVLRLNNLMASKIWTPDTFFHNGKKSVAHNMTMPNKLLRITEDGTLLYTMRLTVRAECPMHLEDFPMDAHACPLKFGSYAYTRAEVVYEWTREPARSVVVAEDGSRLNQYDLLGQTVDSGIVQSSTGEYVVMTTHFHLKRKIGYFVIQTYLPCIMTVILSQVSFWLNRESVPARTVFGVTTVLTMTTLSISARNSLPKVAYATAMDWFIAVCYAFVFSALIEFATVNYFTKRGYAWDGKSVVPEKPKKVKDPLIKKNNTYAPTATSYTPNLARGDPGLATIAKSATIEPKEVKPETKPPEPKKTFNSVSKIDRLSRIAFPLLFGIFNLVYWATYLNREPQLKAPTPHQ
T3 sequence (P18507 whole entry): T1 sequence (P18507 whole entry)
T3 sequence (P28472 whole entry): T1 sequence (P28472 whole entry)

[5] = biological target: T4, GABA-A receptor; alpha-3/beta-3/gamma-2 (Homo sapiens, UniProt P18507+P28472+P34903); assay: Displacement of [3H]-Ro 15-1788 from Homo sapiens (human) recombinant GABAA alpha3beta3gamma2 receptor expressed in Ltk- cells after 1 hr by liquid scintillation counting; format: cell-based
T4 sequence (P18507 whole entry): T1 sequence (P18507 whole entry)
T4 sequence (P28472 whole entry): T1 sequence (P28472 whole entry)
T4 sequence (P34903 whole entry): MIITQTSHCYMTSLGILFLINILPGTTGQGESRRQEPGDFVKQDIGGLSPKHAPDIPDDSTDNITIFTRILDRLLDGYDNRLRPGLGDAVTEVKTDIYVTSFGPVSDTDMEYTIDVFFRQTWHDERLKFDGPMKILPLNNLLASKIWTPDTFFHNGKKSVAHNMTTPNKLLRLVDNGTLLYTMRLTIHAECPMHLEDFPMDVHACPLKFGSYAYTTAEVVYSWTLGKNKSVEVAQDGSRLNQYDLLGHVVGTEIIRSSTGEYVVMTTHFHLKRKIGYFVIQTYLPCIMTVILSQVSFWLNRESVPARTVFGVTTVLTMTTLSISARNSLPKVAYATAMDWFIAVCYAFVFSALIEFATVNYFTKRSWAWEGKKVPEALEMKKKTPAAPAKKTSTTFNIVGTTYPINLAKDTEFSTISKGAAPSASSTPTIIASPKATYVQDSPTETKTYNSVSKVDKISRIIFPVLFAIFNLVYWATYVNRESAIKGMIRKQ

[6] = organism: Homo sapiens; assay: Selectivity ratio of Ki for Homo sapiens (human) recombinant GABAA alpha1beta3gamma2 receptor to Ki for Homo sapiens (human) recombinant GABAA alpha5beta3gamma2 receptor
[7] = biological target: GABA-A receptor; alpha-6/beta-3/gamma-2 (Homo sapiens, UniProt P18507+P28472+Q16445); assay: Displacement of [3H]-Ro 15-4513 from Homo sapiens (human) recombinant GABAA alpha6beta3gamma2 receptor expressed in Ltk- cells after 1 hr by liquid scintillation counting; format: cell-based
GABA-A receptor; alpha-6/beta-3/gamma-2, sequence (Q16445 whole entry, one chain of several): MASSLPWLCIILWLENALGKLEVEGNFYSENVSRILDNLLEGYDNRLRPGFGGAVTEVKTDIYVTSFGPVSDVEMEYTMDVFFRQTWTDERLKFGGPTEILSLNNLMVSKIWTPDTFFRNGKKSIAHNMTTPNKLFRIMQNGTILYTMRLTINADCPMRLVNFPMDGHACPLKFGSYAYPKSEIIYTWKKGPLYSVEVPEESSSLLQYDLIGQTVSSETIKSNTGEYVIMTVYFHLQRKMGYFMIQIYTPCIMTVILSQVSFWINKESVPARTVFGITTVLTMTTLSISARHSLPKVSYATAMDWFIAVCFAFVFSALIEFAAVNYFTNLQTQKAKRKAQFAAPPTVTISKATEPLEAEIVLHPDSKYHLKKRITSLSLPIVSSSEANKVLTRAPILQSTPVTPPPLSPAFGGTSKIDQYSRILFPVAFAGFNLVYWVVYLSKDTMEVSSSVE

GABA A receptor alpha-4/beta-3/gamma-2, sequence (P48169 whole entry, one chain of several): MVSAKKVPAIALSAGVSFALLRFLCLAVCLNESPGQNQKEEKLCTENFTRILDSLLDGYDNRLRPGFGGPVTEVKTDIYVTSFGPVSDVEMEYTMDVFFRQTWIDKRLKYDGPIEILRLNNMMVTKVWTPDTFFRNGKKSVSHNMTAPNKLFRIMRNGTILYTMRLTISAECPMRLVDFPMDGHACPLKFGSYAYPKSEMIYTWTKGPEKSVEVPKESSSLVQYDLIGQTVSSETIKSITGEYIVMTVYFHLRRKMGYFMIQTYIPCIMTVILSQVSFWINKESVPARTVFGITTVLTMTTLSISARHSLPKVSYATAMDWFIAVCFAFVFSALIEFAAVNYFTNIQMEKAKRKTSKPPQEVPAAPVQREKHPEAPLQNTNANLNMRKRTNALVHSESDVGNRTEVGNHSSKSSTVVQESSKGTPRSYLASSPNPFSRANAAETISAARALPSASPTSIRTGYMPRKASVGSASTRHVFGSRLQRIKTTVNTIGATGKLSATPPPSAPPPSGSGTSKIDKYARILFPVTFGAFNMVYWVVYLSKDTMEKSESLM

Structure (SMILES)	pKi [1]	pKi [2]	pKi [3]	pKi [4]	pKi [5]	Ratio Ki [6]	pKi [7]
C#Cc1ccc2c(c1)C(=O)N1CCC[C@H]1c1c(C(=O)OCC(F)(F)F)ncn1-2	8.08	6.76	6.46	6.52	6.77	36	6.49
CC(C)(C)OC(=O)c1ncn2c1[C@@H]1CCCN1C(=O)c1cc(-c3ccco3)ccc1-2	8.77	7.79	7.94	8.74	7.81	1.1	7.34
C[Si](C)(C)C#Cc1ccc2c(c1)C(=O)N1CCC[C@H]1c1c(C(=O)OCC(F)(F)F)ncn1-2	6.86	< 6.48	< 6.48	< 6.48	< 6.48		< 6.48
CC(C)(C)OC(=O)c1ncn2c1[C@@H]1CCCN1C(=O)c1cc(C#C[Si](C)(C)C)ccc1-2	6.99	< 6.48	6.76	< 6.48	< 6.48		< 6.48
C#Cc1ccc2c(c1)C(=O)N1CCC[C@H]1c1c(C(=O)OC(C)(C)C)ncn1-2	7.40	< 6.48	6.67	< 6.48	< 6.48		6.51
O=C(OCC(F)(F)F)c1ncn2c1[C@@H]1CCCN1C(=O)c1cc(-c3ccco3)ccc1-2	8.00	7.26	7.29	8.15	7.28	0.71	6.60
CCOC(=O)c1ncn2c1[C@@H]1CCCN1C(=O)c1cc(OC)ccc1-2						108	
C#Cc1ccc2c(c1)C(=O)N1CCC[C@H]1c1c(C(=O)OCC)ncn1-2						45	
CCOC(=O)c1ncn2c1[C@@H]1CCCN1C(=O)c1cc(Br)ccc1-2						49	
CC(C)(C)OC(=O)c1ncn2c1[C@@H]1CCCN1C(=O)c1cc(Br)ccc1-2	8.40	6.91	7.54	6.82	7.31	37.5	7.14
O=C(OCC(F)(F)F)c1ncn2c1[C@@H]1CCCN1C(=O)c1cc(Br)ccc1-2	7.24	< 6.48	6.54	< 6.48	6.61		< 6.48
CCOC(=O)c1ncn2c1[C@@H]1CCCN1C(=O)c1cc(C#C[Si](C)(C)C)ccc1-2						50	
C=Cc1ccc2c(c1)C(=O)N1CCC[C@H]1c1c(C(=O)OCC(F)(F)F)ncn1-2	8.16	7.26	6.76	7.03	7.19	13.6	6.53
O=C(OCC(F)(F)F)c1ncn2c1[C@@H]1CCCN1C(=O)c1cc(-c3ccccc3)ccc1-2	< 6.48	< 6.48	< 6.48	6.85	< 6.48		< 6.48
CC(C)(C)OC(=O)c1ncn2c1[C@@H]1CCCN1C(=O)c1cc(-c3cccs3)ccc1-2	7.92	6.92	6.92	7.80	6.91	1.3	< 6.48
CC(C)(C)OC(=O)c1ncn2c1[C@@H]1CCCN1C(=O)c1cc(-c3ccccc3)ccc1-2	7.89	6.89	6.94	7.55	7.23	2.2	< 6.48
C=Cc1ccc2c(c1)C(=O)N1CCC[C@H]1c1c(C(=O)OC(C)(C)C)ncn1-2	8.62	7.46	7.59	7.30	7.59	20.8	7.24
O=C(OCC(F)(F)F)c1ncn2c1[C@@H]1CCCN1C(=O)c1ccccc1-2	8.37	7.47	< 6.48	7.47	7.89	7.9	< 6.48
